From patent US9540427B2, “Peptide-based stat inhibitor” (The United States of America, as represented by the …, priority 2007, dated 2017)
Square brackets hold non-standard residues; d marks the D form. Ends that are not written are not given here. Peptide text beside a SMILES is read from it. * marks the point of attachment. Phe(4-CN) = N#Cc1ccc(C[C@H](N)C(=O)O)cc1; Palmitoyl = CCCCCCCCCCCCCCCC(=O)*; rhodamine = not defined here; Nle = CCCC[C@H](N)C(=O)O; Dab = NCC[C@H](N)C(=O)O

Assays:
MCF7 breast cancer cells = assay: MTT assay of growth inhibition / cytotoxicity in MCF7 cells; format: cell-based, human; conditions: for Cell growth, % of control: 5 μM, MTT assay 48 hours after exposure
Description: Activity was determined by MTT assay 48 hours after exposure of the MCF7 cells to the test compounds.
Peptides were constructed based on variations of the amino acid sequence of the second helix of STAT1 and STAT5a. ε-palmitoyl lysine was substituted for penetratin as a cell-penetrating motif Several residues of penetratin sequence were preserved in the lipopeptide derivatives, which served as a linking sequence. The peptides and peptidomimetics were tested for growth inhibitory and cytotoxic activity in MCF7 cells using an MTT assay as described in Example 2.
Retro-inverso peptide analogues were prepared comprising variants of the sequence of helix 2 of STAT3. STAT3-Hel2A-2 (see Example 3) was used as a starting sequence, in which all but three residues of the original penetratin sequence was replaced with palmitic acid. The variants were produced by systematically truncating and substituting the base sequence. The compounds were used to treat MCF7 breast cancer cells. IC50 values were determined 48 hours after exposing the cells to the test compounds.

STAT1 = biological target: T1, STAT1 (Homo sapiens, UniProt P42224); assay: STAT1 tyrosine phosphorylation and expression in cytokine-treated breast cancer cells; format: cell-based; conditions: pretreatment 1 hour
T1 construct: endogenous in cells; host or cells: MCF-7 and MDA-MB-231
T1 sequence (P42224 1-750): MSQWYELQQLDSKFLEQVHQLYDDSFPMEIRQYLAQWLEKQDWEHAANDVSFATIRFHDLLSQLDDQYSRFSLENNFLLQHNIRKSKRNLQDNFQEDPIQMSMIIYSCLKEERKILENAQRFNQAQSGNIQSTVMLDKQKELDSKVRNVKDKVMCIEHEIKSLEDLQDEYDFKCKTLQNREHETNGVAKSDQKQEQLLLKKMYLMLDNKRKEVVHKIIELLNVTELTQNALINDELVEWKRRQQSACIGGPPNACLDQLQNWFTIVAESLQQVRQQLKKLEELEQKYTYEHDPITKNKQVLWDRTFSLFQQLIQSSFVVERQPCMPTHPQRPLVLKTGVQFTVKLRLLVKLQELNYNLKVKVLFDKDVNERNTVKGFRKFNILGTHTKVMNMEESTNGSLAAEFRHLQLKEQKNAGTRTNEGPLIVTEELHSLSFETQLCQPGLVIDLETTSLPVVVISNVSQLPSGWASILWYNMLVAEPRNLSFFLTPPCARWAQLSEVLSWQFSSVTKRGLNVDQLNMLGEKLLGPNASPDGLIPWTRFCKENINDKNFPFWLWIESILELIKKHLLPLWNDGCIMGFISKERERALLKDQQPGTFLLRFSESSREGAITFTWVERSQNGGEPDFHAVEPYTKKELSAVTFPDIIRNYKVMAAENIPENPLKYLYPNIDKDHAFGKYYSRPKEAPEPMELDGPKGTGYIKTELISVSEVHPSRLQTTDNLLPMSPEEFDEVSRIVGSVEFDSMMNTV
Description: (§1) MCF-7 and MDA-MB-231 cells were treated with Leukemia Inhibitory Factor (LIF) to activate STAT3 and with Interferon gamma (IFN-γ) to activate STAT1 signaling. In MCF-7 cells, LIF induced selective STAT3 tyrosine phosphorylation and IFN-γ induced selective STAT1 tyrosine phosphorylation. In MDA-MB-231 cells, however, each cytokine induced both STAT3 and STAT1 tyrosine phosphorylation.

[1] = system: STAT3-dependent transcription (APRE reporter); assay: APRE luciferase reporter in MCF-7 cells activated by LIF; format: cell-based, human; conditions: basal and LIF-stimulated
Text: (§2) To evaluate effects of inhibitors on cytokine-activated transcription, luciferase reporter vectors APRE and ISRE were employed (Takeda et al., J. Endocrinol. 159, 323-330 (1998); Ivanova et al., J. Mol. Biol. 340, 641-653 (2004)). APRE was activated in MCF-7 cells by LIF.

STAT3 = biological target: T2, STAT3 (Homo sapiens, UniProt P40763); assay: STAT3 tyrosine phosphorylation and expression in cytokine-treated breast cancer cells; format: cell-based; conditions: pretreatment 1 hour
T2 construct: endogenous in cells; host or cells: MCF-7 and MDA-MB-231
Description: as §1

[2] = system: STAT1-dependent transcription (ISRE reporter); assay: ISRE luciferase reporter in MCF-7 cells activated by IFN-γ; format: cell-based, human; conditions: IFN-γ-stimulated
Text: as §2

STAT3 signaling = assay: Luciferase reporter assay (Mercury JAK-STAT Pathway Profiling system, GAS or STAT3 elements) in MCF-7 cells; format: cell-based, human; set-up: concentration or dose not given beside the values; conditions: luciferase reporter with GAS or STAT3 elements, basal expression, within one hour after treatment
Description: Selected peptides were tested for inhibition of STAT3 signaling in breast cancer cell lines by luciferase reporter assay. The assay employed the Mercury JAK-STAT Pathway Profiling system (Clontech), which includes the enhancer elements GAS (interferon-γ activating sequence) or STAT3 (a modified GAS sequence) introduced as three tandem copies upstream of the TA promoter in a luciferase reporter vector. STAT3 helix 2 analogs reduced basal expression of the reporter construct containing the GAS, or STAT3 elements in MCF-7 cells within one hour after treatment.

[3] = biological target: T3, STAT3 tagged with eGFP (eGFP-STAT3) (Homo sapiens, UniProt P40763); assay: FRET in living cells expressing eGFP-STAT3; format: binding; conditions: HEK293 cells stably expressing eGFP-STAT3, 5 μM, one hour
T3 construct: expressed in transfected cells; host or cells: HEK293
Description: Fluorescence Resonance Energy Transfer (FRET) method was used to determine whether STAT3-HEL2A-2 (see Example 3) interacts with STAT3 in living cells. HEK293 cells stably expressing STAT3 tagged with eGFP on its N-terminus (eGFP-STAT3) were treated for one hour with 5 μM of STAT3-HEL2A-2 labeled with rhodamine. An additional cysteine residue was positioned at the C-terminus of penetratin to facilitate labeling. Excitation of eGFP (donor) was facilitated using a 488-nm light source, and the emission spectrum was detected. In the absence of energy transfer between eGFP and rhodamine, excitation of eGFP would lead to an emission peak at 520-540 nm, whereas energy transfer from eGFP to an adjacent rhodamine fluorochrome acceptor would cause an emission in the 560-600 nm range. […] The photobleaching of rhodamine restored the fluorescence of eGFP.
Cells expressing eGFP-STAT3, eGFP-STAT1, or eGFP were treated with rhodamine-labeled STAT3-HEL2A-2 (see Example 6). Excitation of eGFP was facilitated, and the emission spectrum detected, in accordance with the methods described in Example 6. FRET efficiency was calculated using equation 1-D0/D1, where D0 is fluorescence intensity of eGFP before rhodamine photobleaching and D1 is the intensity after rhodamine photobleaching.

[4] = MCF-7 and MDA-MB-231 cells treated with LIF or IFN-γ

T2 sequence (P40763 whole entry): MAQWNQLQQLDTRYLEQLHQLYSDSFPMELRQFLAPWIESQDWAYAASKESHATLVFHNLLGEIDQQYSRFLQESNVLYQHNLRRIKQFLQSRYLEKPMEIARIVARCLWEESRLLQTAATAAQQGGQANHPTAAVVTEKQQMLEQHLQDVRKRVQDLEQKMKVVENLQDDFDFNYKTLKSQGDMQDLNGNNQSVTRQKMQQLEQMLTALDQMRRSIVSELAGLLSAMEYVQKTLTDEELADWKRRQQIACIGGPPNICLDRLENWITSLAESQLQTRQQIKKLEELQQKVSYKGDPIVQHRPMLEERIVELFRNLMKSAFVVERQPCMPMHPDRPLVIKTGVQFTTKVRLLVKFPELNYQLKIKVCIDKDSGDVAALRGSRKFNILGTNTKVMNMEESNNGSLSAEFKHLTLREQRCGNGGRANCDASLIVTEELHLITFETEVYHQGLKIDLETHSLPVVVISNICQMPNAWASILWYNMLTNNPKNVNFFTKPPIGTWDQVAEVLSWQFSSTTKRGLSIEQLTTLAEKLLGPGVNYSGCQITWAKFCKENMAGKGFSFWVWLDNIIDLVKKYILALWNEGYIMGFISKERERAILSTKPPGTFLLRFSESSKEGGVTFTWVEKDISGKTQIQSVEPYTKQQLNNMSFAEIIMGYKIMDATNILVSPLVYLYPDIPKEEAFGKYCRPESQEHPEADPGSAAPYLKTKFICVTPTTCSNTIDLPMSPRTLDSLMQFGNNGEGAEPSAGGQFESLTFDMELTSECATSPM
T3 sequence (P40763 whole entry): as above

Ac-DTRYLEQLHELY (Ac-DTRYLEQLHELY-penetratin; also: penetratin fused C-terminally) [Hel2A-4-Pen, penetratin fused to the C-terminus]
Cell growth, % of control (MCF7 breast cancer cells): 91 ± 6%

DTRYLEQLHKLCyPheS (DTRYLEQLHKL[Phe(4-CN)]S; also: penetratin fused C-terminally) [Hel2C-Pen, CyPhe is 4-cyano phenylalanine; penetratin fused to the C-terminus]
Cell growth, % of control (MCF7 breast cancer cells): 38 ± 4%

DTKYLEQLHKLYS (DTKYLEQLHKLYS-penetratin) [Hel2D-Pen, penetratin fused to the C-terminus]
Cell growth, % of control (MCF7 breast cancer cells): 42 ± 4%

DSKFLEQVHKLY-penetratin [STAT1-Hel2A-2]
Effect on expression level of STAT1 protein (STAT1; MCF-7 and MDA-MB-231 cells): did not change | Effect on tyrosine phosphorylation of STAT1 (STAT1; [4]): did not affect | Effect on APRE reporter expression [1]: inhibited both basal and stimulated expression | Effect on expression level of STAT3 protein (STAT3; MCF-7 and MDA-MB-231 cells): did not change | Effect on tyrosine phosphorylation of STAT3 (STAT3; [4]): did not affect | Effect on ISRE reporter activation [2]: prevented cytokine-stimulated reporter activation

Ac-DTRYLEQLHKLY (Ac-DTRYLEQLHKLY-penetratin; also: penetratin fused C-terminally) [Ac-Hel2A-2a-Pen, penetratin fused to the C-terminus]
Cell growth, % of control (MCF7 breast cancer cells): 45 ± 5%

LDTRYLEQLHQLYS (LDTRYLEQLHQLYS-penetratin) [Hel2-Pen]
Activity, % of control (STAT3 signaling): 56 ± 5% | Cell growth, % of control (MCF7 breast cancer cells): 73 ± 5%

DTRYLQELHKLYS (DTRYLQELHKLYS-penetratin) [Hel2E-Pen, penetratin fused to the C-terminus]
Cell growth, % of control (MCF7 breast cancer cells): 46 ± 4%

DTRYLEQLHDabLY (DTRYLEQLH[Dab]LY; also: penetratin fused C-terminally) [Hel2I-Pen, penetratin fused to the C-terminus]
Activity, % of control (STAT3 signaling): 53 ± 6% | Cell growth, % of control (MCF7 breast cancer cells): 25 ± 4%

Ac-DTRYLEQLHALY (Ac-DTRYLEQLHALY-penetratin; also: penetratin fused C-terminally) [Hel2A-3-Pen, penetratin fused to the C-terminus]
Activity, % of control (STAT3 signaling): 89 ± 9% | Cell growth, % of control (MCF7 breast cancer cells): 93 ± 6%

LDTKYLEQLHDabLY (LDTKYLEQLH[Dab]LY; also: penetratin fused C-terminally) [Hel2K-Pen, penetratin fused to the C-terminus]
Cell growth, % of control (MCF7 breast cancer cells): 8 ± 2%

LDTRYLEQLHDabLY (LDTRYLEQLH[Dab]LY; also: penetratin fused C-terminally) [Hel2H-Pen, penetratin fused to the C-terminus]
Activity, % of control (STAT3 signaling): 43 ± 4% | Cell growth, % of control (MCF7 breast cancer cells): 45 ± 4%

DTRYLEQLHKLYS (DTRYLEQLHKLYS-penetratin) [Hel2A-Pen, penetratin fused to the C-terminus]
Activity, % of control (STAT3 signaling): 100 ± 9% | Cell growth, % of control (MCF7 breast cancer cells): 44 ± 5%

CCCCCCCCCCCCCCCC(=O)N[C@H](CCCCN)C(=O)N[C@H](Cc1ccc(O)cc1)C(=O)N[C@H](CC(C)C)C(=O)N[C@H](CCCCN)C(=O)N[C@H](Cc1c[nH]cn1)C(=O)N[C@H](CC(C)C)C(=O)N[C@H](CCC(N)=O)C(=O)N[C@H](CCC(=O)O)C(=O)N[C@H](CC(C)C)C(=O)N[C@H](Cc1ccc(O)cc1)C(=O)N[C@H](CCCNC(=N)N)C(=O)N[C@@H](C(=O)N[C@H](CC(=O)O)C(N)=O)[C@H](C)O [St3-H2a-2a-Pa17] (Palmitoyl-[dK][dY][dL][dK][dH][dL][dQ][dE][dL][dY][dR][dT][dD]-NH2; C-terminus assumed)
IC50 (MCF7 breast cancer cells; read-out: IC50 (concentration causing 50% growth inhibition), 48 hours after exposure, Table 8): 1.8 µM

DTRYLEQLHDabLYS (DTRYLEQLH[Dab]LYS; also: penetratin fused C-terminally) [Hel2F-Pen, penetratin fused to the C-terminus]
Cell growth, % of control (MCF7 breast cancer cells): 60 ± 5%

LDTRYLEQLHKLYS (LDTRYLEQLHKLYS-penetratin) [Hel2B-Pen, penetratin fused to the C-terminus]
Activity, % of control (STAT3 signaling): 100 ± 9% | Cell growth, % of control (MCF7 breast cancer cells): 82 ± 6%

DTRYLEQLHKLY (DTRYLEQLHKLY-penetratin) [Hel2A-2a-Pen, penetratin fused to the C-terminus]
Cell growth, % of control (MCF7 breast cancer cells): 65 ± 5%

Ac-ATRYLEQLHKLY (Ac-ATRYLEQLHKLY-penetratin; also: penetratin fused C-terminally) [Hel2A-5-Pen, penetratin fused to the C-terminus]
Cell growth, % of control (MCF7 breast cancer cells): 85 ± 5%

rhodamine-labeled STAT3-HEL2A-2: STAT3-HEL2A-2 labeled with rhodamine via an additional cysteine residue at the C-terminus of penetratin (LDTRYLEQLHKLYRQIKIWFPNRR[Nle]KWKKC(rhodamine); reading uncertain)
Quenching of the normal fluorescence of eGFP [3]: 90%
